Test results as given in the supplement of paper PMC10627819.

Test system: S. pneumoniae D39V
Assay: fitness (endpoint OD595 vs no drug) (fraction); higher = more growth
How it was run: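 Fitness was defined as the optical density at the transition into stationary phase relative to the robust mean of no-drug control wells. Values were capped at 1. Cultures were started at OD595 0.01 in 384-well plates (30 µl, or 55 µl for S. pneumoniae) in TSB, LB Lennox or CY at 37 °C. OD595 was recorded every 30 min over 14 h, with the first reading subtracted as background.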

CC(=O)Oc1ccccc1C(=O)O [Acetylsalicylic acid] + CC[C@H]1OC(=O)[C@H](C)[C@@H](O[C@H]2C[C@@](C)(OC)[C@@H](O)[C@H](C)O2)[C@H](C)[C@@H](O[C@@H]2O[C@H](C)C[C@H](N(C)C)[C@H]2O)[C@](C)(OC)C[C@@H](C)C(=O)[C@H](C)[C@@H](O)[C@]1(C)O [Clarithromycin]
fitness, one replicate
Details | first compound 250 µg/mL | first compound 500 µg/mL | first compound 1000 µg/mL
partner 0.007812 µg/mL | 0.824 | 0.781 | 0.281
partner 0.01562 µg/mL | 0.783 | 0.763 | 0.193
partner 0.03125 µg/mL | 0.621 | 0.627 | 0.257

fitness
Details | partner 0.0625 µg/mL | partner 0.07 µg/mL | partner 0.125 µg/mL | partner 0.14 µg/mL | partner 0.25 µg/mL | partner 0.28 µg/mL
first compound 250 µg/mL | 0.642 | 0.195 | 0.369 | 0.137 | 0.133 | 0.104
first compound 500 µg/mL | 0.586 | 0.228 | 0.359 | 0.167 | 0.147 | 0.108
first compound 1000 µg/mL | 0.405 | 0.155 | 0.148 | 0.139 | 0.0751 | 0.0935

CC(=O)Oc1ccccc1C(=O)O [Acetylsalicylic acid] + CCC(C)C1C(=O)NC(=C)C(=O)NC(C(=O)NC(CSCC(C(=O)N1)NC(=O)/C(=C/C)/NC(=O)C(C(C)CC)N)C(=O)NC2C(SCC(NC(=O)CNC(=O)C3CCCN3C2=O)C(=O)NC(CCCCN)C(=O)NC4C(SCC(NC(=O)CNC(=O)C(NC(=O)C(NC(=O)C(NC(=O)CNC4=O)C)CC(C)C)CCSC)C(=O)NC(CC(=O)N)C(=O)NC(CCSC)C(=O)NC(CCCCN)C(=O)NC5C(SCC6C(=O)NC(C(=O)NC(CSC(C(C(=O)N6)NC(=O)C(NC5=O)C)C)C(=O)NC(CO)C(=O)NC(C(C)CC)C(=O)NC(CC7=CN=CN7)C(=O)NC(C(C)C)C(=O)NC(=C)C(=O)NC(CCCCN)C(=O)O)CC8=CN=CN8)C)C)C)CC(C)C [Nisin]
fitness, main component drawn
Details | partner 0.4275 µg/mL | partner 0.855 µg/mL | partner 1.6 µg/mL | partner 1.71 µg/mL | partner 3.2 µg/mL | partner 6.4 µg/mL
first compound 250 µg/mL | 0.994 | 0.711 | 0.0198 | 0.0841 | 0.0317 | 0.0271
first compound 500 µg/mL | 0.974 | 0.715 | 0.0324 | 0.114 | 0.0227 | 0.0184
first compound 1000 µg/mL | – | 0.526 | 0.0339 | 0.0989 | 0.0138 | 0.0153

CC(=O)Oc1ccccc1C(=O)O [Acetylsalicylic acid] + CC(C1CCC(C(O1)OC2C(CC(C(C2O)OC3C(C(C(CO3)(C)O)NC)O)N)N)N)NC [Gentamicin]
fitness, main component drawn
Details | partner 2 µg/mL | partner 4 µg/mL | partner 8 µg/mL
first compound 250 µg/mL | 0.955 | 0.967 | 0.93
first compound 500 µg/mL | 0.972 | 0.947 | 0.917

CC(=O)Oc1ccccc1C(=O)O [Acetylsalicylic acid] + CO[C@H]1/C=C/O[C@@]2(C)Oc3c(C)c(O)c4c(O)c(c(/C=N/N5CCN(C)CC5)c(O)c4c3C2=O)NC(=O)/C(C)=C\C=C\[C@H](C)[C@H](O)[C@@H](C)[C@@H](O)[C@@H](C)[C@H](OC(C)=O)[C@@H]1C [Rifampicin]
fitness
Details | first compound 250 µg/mL | first compound 500 µg/mL | first compound 1000 µg/mL
partner 0.025 µg/mL | 0.932 | 0.913 | 0.81
partner 0.05 µg/mL | – | 0.899 | 0.668
partner 0.1 µg/mL | 0.476 | 0.37 | –

partner 0.2 µg/mL, one replicate
Details | fitness
first compound 250 µg/mL | 0
first compound 500 µg/mL | 0
first compound 1000 µg/mL | 0

CC(=O)Oc1ccccc1C(=O)O [Acetylsalicylic acid] + CN(C)C(=O)C(CCN1CCC(O)(c2ccc(Cl)cc2)CC1)(c1ccccc1)c1ccccc1 [Loperamide]
fitness
Details | partner 17.14 µg/mL | partner 20 µg/mL | partner 34.28 µg/mL | partner 40 µg/mL | partner 80 µg/mL
first compound 250 µg/mL | 0.987 | 0.989 | 0.945 | 0.982 | ≥ 1
first compound 500 µg/mL | 0.972 | ≥ 1 | 0.981 | ≥ 1 | ≥ 1
first compound 1000 µg/mL | 0.859 | 0.987 | 0.879 | 0.967 | 0.937

partner 68.57 µg/mL, one replicate
Details | fitness
first compound 250 µg/mL | 0.931
first compound 500 µg/mL | 0.927
first compound 1000 µg/mL | ≥ 1

CC(=O)Oc1ccccc1C(=O)O [Acetylsalicylic acid] + O=C1CN(/N=C/c2ccc([N+](=O)[O-])o2)C(=O)N1 [Nitrofurantoin]
fitness
Details | partner 1.285 µg/mL | partner 2 µg/mL | partner 2.57 µg/mL | partner 4 µg/mL | partner 8 µg/mL
first compound 250 µg/mL | 0.979 | 0.9 | 0.973 | 0.91 | 0.813
first compound 500 µg/mL | 0.974 | 0.835 | 0.947 | 0.786 | 0.742
first compound 1000 µg/mL | 0.931 | 0.513 | 0.93 | 0.446 | 0.467

partner 5.14 µg/mL, one replicate
Details | fitness
first compound 250 µg/mL | 0.93
first compound 500 µg/mL | 0.888
first compound 1000 µg/mL | 0.813

CC(=O)Oc1ccccc1C(=O)O [Acetylsalicylic acid] + C[C@H]1c2cccc(O)c2C(=O)C2=C(O)[C@]3(O)C(=O)C(C(N)=O)=C(O)[C@@H](N(C)C)[C@@H]3[C@@H](O)[C@@H]21 [Doxycycline]
fitness, one replicate
Details | first compound 250 µg/mL | first compound 500 µg/mL | first compound 1000 µg/mL
partner 0.003875 µg/mL | ≥ 1 | ≥ 1 | 0.95
partner 0.00775 µg/mL | 0.998 | ≥ 1 | ≥ 1

fitness
Details | first compound 250 µg/mL | first compound 500 µg/mL | first compound 1000 µg/mL
partner 0.0155 µg/mL | 0.907 | 0.941 | 0.842
partner 0.031 µg/mL | 0.825 | 0.822 | 0.668
